Broadly, the remaining activity is the signal under treatment as a percentage of the control signal.

From patent publication US20230072421A1, “TARGETED RADIOPHARMACEUTICALS FOR THE DIAGNOSIS AND TREATMENT OF PROSTATE CANCER” (Bayer AS, priority 2019, published 2023) come the findings set out here.

For this test, the target named is T1, PSMA-expressing LNCaP cells (Homo sapiens, UniProt Q04609).
T1 construct: PSMA-expressing LNCaP cells; endogenous in cells; host or cells: LNCaP
The test can be described thus: Binding competition assay against 3H-PSMA-617 on LNCaP cells. To be noted: for remaining activity at 0.01 µM / remaining activity at 0.1 µM: LNCaP cells, 10 nM 3H-PSMA-617, 2 h at 37° C., triplicates; for remaining activity at 0.01 µM: competing non-radiolabeled compound 10 nM; for remaining activity at 0.1 µM: competing non-radiolabeled compound 100 nM; for competition against 3H-PSMA-617 on PSMA-expressing LNCaP cells (in words): comparison between examples. The method, then: Cells were incubated at 37° C. and 5% CO2 over night. […] After addition of the compounds in growth media the cells were swiveled slightly on a shaker mixing for 10 min followed by incubation for 2 h at 37° C., 5% C02. Following the incubation time the supernatant was removed by pipetting and cells were washed twice with ice cold PBS (total of 800 μl). Cells were lysed in 500 μl of 0.3M NaOH (PanReac AppliChem ITW Reagents) by vigorous shaking for 15 min and the cell lysated pipetted into scintillator tubes (S207-[…]® Scintillation Vials 6.5 ml #S207, Simport). In the following the wells were washed with 500 μl PBS and the washing PBS added to the corresponding samples in the sincitallator tubes. To each sample in the scintillator tubes 4 mL of Ultima Gold liquid scintillation cocktail (Sigma-Aldrich #L8286) was added and the samples let stand for at least 30 min. Thereafter radioactivity was counted in a Tri-Carb Liquid Scinzillation Analyzer (Perkin Elmer).

T1 sequence (Q04609 whole entry): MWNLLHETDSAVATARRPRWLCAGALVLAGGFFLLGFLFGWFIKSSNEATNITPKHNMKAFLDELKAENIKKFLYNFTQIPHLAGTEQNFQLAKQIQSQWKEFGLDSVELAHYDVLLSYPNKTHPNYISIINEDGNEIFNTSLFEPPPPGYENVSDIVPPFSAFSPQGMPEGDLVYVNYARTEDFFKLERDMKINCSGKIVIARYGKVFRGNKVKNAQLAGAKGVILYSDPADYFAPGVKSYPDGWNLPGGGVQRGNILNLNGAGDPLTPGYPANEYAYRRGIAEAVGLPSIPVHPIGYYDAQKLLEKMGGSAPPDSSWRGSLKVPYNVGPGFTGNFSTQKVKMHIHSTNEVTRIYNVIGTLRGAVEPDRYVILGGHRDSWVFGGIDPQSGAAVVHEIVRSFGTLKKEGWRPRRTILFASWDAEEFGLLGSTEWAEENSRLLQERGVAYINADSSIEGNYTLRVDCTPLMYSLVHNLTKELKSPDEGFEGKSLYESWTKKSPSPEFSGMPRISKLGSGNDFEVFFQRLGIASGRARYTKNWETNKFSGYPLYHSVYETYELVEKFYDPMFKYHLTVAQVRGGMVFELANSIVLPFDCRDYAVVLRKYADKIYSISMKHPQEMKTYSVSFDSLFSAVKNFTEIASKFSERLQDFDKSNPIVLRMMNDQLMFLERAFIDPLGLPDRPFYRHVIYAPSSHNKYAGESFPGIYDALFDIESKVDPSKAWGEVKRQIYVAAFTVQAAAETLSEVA

As for `NC[C@H]1CC[C@H](C(=O)N[C@H](Cc2ccc3cnccc3c2)C(=O)NCCCC[C@H](NC(=O)N[C@@H](CCC(=O)O)C(=O)O)C(=O)O)CC1` [Example 44-A, (3R,10S,14S)-1-[(1r,4S)-4-(aminomethyl)cyclohexyl]-3-[(isoquinolin-6-yl)methyl]-1,4,12-trioxo-2,5,11,13-tetraazahexadecane-10,14,16-tricarboxylic acid], the remaining activity at 0.01 µM worked out at 85% and the remaining activity at 0.1 µM turned out to be 68%.

As for `NC[C@H]1CC[C@H](C(=O)N[C@@H](CCCc2ccccc2)C(=O)NCCCC[C@H](NC(=O)N[C@@H](CCC(=O)O)C(=O)O)C(=O)O)CC1` [Example 3-A, N^6—{N-[(1r,4S)-4-(aminomethyl)cyclohexane-1-carbonyl]-5-phenyl-L-norvalyl}-N^2-{[(1S)-1,3-dicarboxypropyl]carbamoyl}-L-lysine], the remaining activity at 0.01 µM stood at 100% and the remaining activity at 0.1 µM came out at 88%.

As to `NC[C@H]1CC[C@H](C(=O)N[C@H](Cc2csc3ccc(Cl)cc23)C(=O)NCCCC[C@H](NC(=O)N[C@@H](CCC(=O)O)C(=O)O)C(=O)O)CC1` [Example 41-A, N^6—{N-[(1r,4S)-4-(aminomethyl)cyclohexane-1-carbonyl]-3-(5-chloro-1-benzothiophen-3-yl)-D-alanyl}-N^2-{[(1S)-1,3-dicarboxypropyl]carbamoyl}-L-lysine], the remaining activity at 0.01 µM came to 82% and the remaining activity at 0.1 µM was determined as 61%.

For the compound `COc1c(C[C@@H](NC(=O)c2ccc(CNC(=O)CN3CCN(CC(=O)O)CCN(CC(=O)O)CCN(CC(=O)O)CC3)cn2)C(=O)NCCCC[C@H](NC(=O)N[C@@H](CCC(=O)O)C(=O)O)C(=O)O)ccc2ccccc12` [Example 33a-B, (3R,10S,14S)-3-[(1-methoxynaphthalen-2-yl)methyl]-1,4,12-trioxo-1-[5-({2-[4,7,10-tris(carboxymethyl)-1,4,7,10-tetraazacyclododecan-1-yl]acetamido}methyl)pyridin-2-yl]-2,5,11,13-tetraazahexadecane-10,14,16-tricarboxylic acid], the remaining activity at 0.01 µM came to 74% and the remaining activity at 0.1 µM was determined as 42%.

Regarding `CNc1cc(C[C@@H](NC(=O)[C@H]2CC[C@H](CN)CC2)C(=O)NCCCC[C@H](NC(=O)N[C@@H](CCC(=O)O)C(=O)O)C(=O)O)cc2ccccc12` [Example 37-A, (3R,10S,14S)-1-[(1r,4S)-4-(aminomethyl)cyclohexyl]-3-{[4-(methylamino)naphthalen-2-yl]methyl}-1,4,12-trioxo-2,5,11,13-tetraazahexadecane-10,14,16-tricarboxylic acid], the remaining activity at 0.01 µM came to 145% and the remaining activity at 0.1 µM is 75%.

Turning to `O=C(O)CC[C@H](NC(=O)N[C@@H](CCCCNC(=O)[C@@H](Cc1ccc2ccncc2c1)NC(=O)[C@H]1CC[C@H](CNC(=O)CN2CCN(CC(=O)O)CCN(CC(=O)O)CCN(CC(=O)O)CC2)CC1)C(=O)O)C(=O)O` [Example 42-B, (3R,10S,14S)-3-[(isoquinolin-7-yl)methyl]-1,4,12-trioxo-1-[(1r,4S)-4-({2-[4,7,10-tris(carboxymethyl)-1,4,7,10-tetraazacyclododecan-1-yl]acetamido}methyl)cyclohexyl]-2,5,11,13-tetraazahexadecane-10,14,16-tricarboxylic acid], the remaining activity at 0.01 µM was 88% and the remaining activity at 0.1 µM stood at 34%.

As for `Cc1cc(C(=O)NCCN(CCCN(CCNC(=O)c2cc(C)n(CC(=O)O)c(=O)c2O)CCNC(=O)c2cc(C)n(CC(=O)NCc3ccc(C(=O)N[C@@H](Cc4ccc5ccccc5n4)C(=O)NCCCC[C@H](NC(=O)N[C@@H](CCC(=O)O)C(=O)O)C(=O)O)nc3)c(=O)c2O)CCNC(=O)c2cc(C)n(CC(=O)O)c(=O)c2O)c(O)c(=O)n1CC(=O)O` [34-C monomer], the remaining activity at 0.01 µM worked out at 58% and the remaining activity at 0.1 µM was 10%.

Take `NC[C@H]1CC[C@H](C(=O)N[C@@H](Cc2ccc3ccccc3c2Br)C(=O)NCCCC[C@H](NC(=O)N[C@@H](CCC(=O)O)C(=O)O)C(=O)O)CC1` [Example 14-A, (3S,10S,14S)-1-[(1r,4S)-4-(aminomethyl)cyclohexyl]-3-[(1-bromonaphthalen-2-yl)methyl]-1,4,12-trioxo-2,5,11,13-tetraazahexadecane-10,14,16-tricarboxylic acid]: the remaining activity at 0.01 µM was 187% and the remaining activity at 0.1 µM came to 129%.

Consider `Nc1ccc(-c2ccn(CC(=O)N[C@@H](Cc3ccc4ccccc4c3)C(=O)NCCCC[C@H](NC(=O)N[C@@H](CCC(=O)O)C(=O)O)C(=O)O)n2)cc1` [Example 28-A, (4S,11S,15S)-1-[3-(4-aminophenyl)-1H-pyrazol-1-yl]-4-[(naphthalen-2-yl)methyl]-2,5,13-trioxo-3,6,12,14-tetraazaheptadecane-11,15,17-tricarboxylic acid], for which the remaining activity at 0.01 µM is 107% and the remaining activity at 0.1 µM amounted to 60%.

As to `O=C(O)CC[C@H](NC(=O)N[C@@H](CCCCNC(=O)[C@@H](Cc1cnc2ccccc2c1)NC(=O)c1ccc(CNC(=O)CN2CCN(CC(=O)O)CCN(CC(=O)O)CCN(CC(=O)O)CC2)cn1)C(=O)O)C(=O)O` [Example 32-B, N^6-{3-(quinolin-3-yl)-N-[5-({2-[4,7,10-tris(carboxymethyl)-1,4,7,10-tetraazacyclododecan-1-yl]acetamido}methyl)pyridine-2-carbonyl]-D-alanyl}-N^2-{[(1S)-1,3-dicarboxypropyl]carbamoyl}-L-lysine], the remaining activity at 0.01 µM came out at 88% and the remaining activity at 0.1 µM stood at 35%.

As to `NC[C@H]1CC[C@H](C(=O)N[C@@H](CCCCNC(=O)c2cccnc2)C(=O)NCCCC[C@H](NC(=O)N[C@@H](CCC(=O)O)C(=O)O)C(=O)O)CC1` [Example 9-A, N^6—{N^2-[(1r,4S)-4-(aminomethyl)cyclohexane-1-carbonyl]-N^6-(pyridine-3-carbonyl)-L-lysyl}-N^2-{[(1S)-1,3-dicarboxypropyl]carbamoyl}-L-lysine], the remaining activity at 0.01 µM was determined as 147% and the remaining activity at 0.1 µM is 114%.

Take `NCc1cccc(C(=O)N[C@@H](Cc2ccc3ccccc3c2)C(=O)NCCCC[C@H](NC(=O)N[C@@H](CCC(=O)O)C(=O)O)C(=O)O)c1` [Example 27-A, (3S,10S,14S)-1-[3-(aminomethyl)phenyl]-3-[(naphthalen-2-yl)methyl]-1,4,12-trioxo-2,5,11,13-tetraazahexadecane-10,14,16-tricarboxylic acid]: the remaining activity at 0.01 µM amounted to 27% and the remaining activity at 0.1 µM came to 7%.

Consider `NCc1ccc(C(=O)N[C@@H](Cc2ccc3ccccc3c2)C(=O)NCCCC[C@H](NC(=O)N[C@@H](CCC(=O)O)C(=O)O)C(=O)O)nc1` [Example 25-A, (3S,10S,14S)-1-[5-(aminomethyl)pyridin-2-yl]-3-[(naphthalen-2-yl)methyl]-1,4,12-trioxo-2,5,11,13-tetraazahexadecane-10,14,16-tricarboxylic acid], for which the remaining activity at 0.01 µM came out at 93%; the remaining activity at 0.1 µM was 21%; the “competition against 3H-PSMA-617 on PSMA-expressing LNCaP cells (in words)” value is “improved competition in comparison to the cyclohexyl examples 1-A and 1-B”.

Regarding `NC[C@H]1CC[C@H](C(=O)N[C@@H](Cc2cccc(S(F)(F)(F)(F)F)c2)C(=O)NCCCC[C@H](NC(=O)N[C@@H](CCC(=O)O)C(=O)O)C(=O)O)CC1` [Example 16-A, N^6—{N-[(1r,4S)-4-(aminomethyl)cyclohexane-1-carbonyl]-3-(pentafluoro-lambda^6-sulfanyl)-L-phenylalanyl}-N^2-{[(1S)-1,3-dicarboxypropyl]carbamoyl}-L-lysine], the remaining activity at 0.01 µM amounted to 79% and the remaining activity at 0.1 µM turned out to be 90%.

As to `NC[C@H]1CC[C@H](C(=O)N[C@@H](Cc2csc3ccccc23)C(=O)NCCCC[C@H](NC(=O)N[C@@H](CCC(=O)O)C(=O)O)C(=O)O)CC1` [Example 43-A, N^6—{N-[(1r,4S)-4-(aminomethyl)cyclohexane-1-carbonyl]-3-(1-benzothiophen-3-yl)-L-alanyl}-N^2-{[(1S)-1,3-dicarboxypropyl]carbamoyl}-L-lysine], the remaining activity at 0.01 µM came to 96% and the remaining activity at 0.1 µM stood at 82%.

Consider `N[C@H]1CC[C@H](CNC(=O)N[C@@H](Cc2ccc3ccccc3c2)C(=O)NCCCC[C@H](NC(=O)N[C@@H](CCC(=O)O)C(=O)O)C(=O)O)CC1` [Example 40-A, (5S,12S,16S)-1-[(1r,4S)-4-aminocyclohexyl]-5-[(naphthalen-2-yl)methyl]-3,6,14-trioxo-2,4,7,13,15-pentaazaoctadecane-12,16,18-tricarboxylic acid], for which the remaining activity at 0.01 µM worked out at 87% and the remaining activity at 0.1 µM came to 62%.

On to `O=C(O)CC[C@H](NC(=O)N[C@@H](CCCCNC(=O)[C@H](Cc1ccc2ccccc2n1)NC(=O)[C@H]1CC[C@H](CNC(=O)CN2CCN(CC(=O)O)CCN(CC(=O)O)CCN(CC(=O)O)CC2)CC1)C(=O)O)C(=O)O` [Example 17-B, N^6-{3-(quinolin-2-yl)-N-[(1r,4S)-4-({2-[4,7,10-tris(carboxymethyl)-1,4,7,10-tetraazacyclododecan-1-yl]acetamido}methyl)cyclohexane-1-carbonyl]-L-alanyl}-N^2-{[(1S)-1,3-dicarboxypropyl]carbamoyl}-L-lysine], for which the remaining activity at 0.01 µM amounted to 55%, the remaining activity at 0.1 µM amounted to 12% and the “competition against 3H-PSMA-617 on PSMA-expressing LNCaP cells (in words)” value was “best competition amongst all quinoline isomer examples”.
